Columns and labels:
4T1 TNBC tumors = test: 4T1 TNBC syngeneic tumor efficacy study in Balb/c mice; assay type: in vivo, mouse
Procedure: Establishment of TNBC cell-derived xenografts in Syngeneic mice: Generation of 4T1 TNBC cell-derived sub-cutaneous xenografts in Balb/c mice were performed (Cheriyan et al. (2016) Oncotarget 7, 73370-73388; and Cheriyan et al. (2017) Oncotarget 8, 104928-104945). BALB/cAnNCr, 6-8-weeks old, female mice were purchased from Charles River Laboratories (Horsham, Pa.). Following suitable acclimation of animals, 1×10^6 4T1 TNBC cells were re-suspended in 200 μl of sterile saline, and implanted in the flanks using a 27-gauge needle. Tumors were allowed to grow to 500-1000 mg (˜10 days), and the aseptically harvested, minced into 3-4 mm^3 (30 mg) fragments and transplanted SC into naïve recipient mice using a standard 12 gauge trocar to serially maintain the tumor in vivo. For efficacy studies, tumors serially maintained in vivo were aseptically harvested and minced into 3-4 mm^3 (30 mg) fragments, then bilaterally transplanted subcutaneously along the flanks using a standard 12 gauge trocar. […] For the efficacy studies, SNI-1 was formulated in 8% DMSO (v/v) and 8% Cremophor (v/v) in cell grade water, pH4 as diluent.
Clinical grade ADR stock (2 mg/mL) was diluted to the appropriate concentration with cell grade water; pH4 and clinical grade CIS (1 mg/ml) diluted with USP 0.9% saline; pH6). Mice were monitored daily for changes in condition and body weight. Tumors were measured three times weekly by caliper and tumor volume (mg) was calculated using the following formula: (A×B2)/2 where A and B are the tumor length and width (in mm), respectively. […] Efficacy was also assessed quantitatively using tumor growth delay (T−C) defined as the difference between the median time (in days) required for the treatment group tumors (T) to reach 1000 mg and the median time (days) for the control group tumors to reach the same volume. Post last treatment, tumor tissue and samples from various organs (spleen, liver, kidney, heart, bone, and lungs) were collected. Additionally, the whole blood samples were obtained from a representative tumor-bearing mouse from each group via terminal cardiac puncture. Immuno-histochemical analyses of the tumor and tissue samples were performed for expression of activated RelA (serine 536 phosphorylated p65), total RelA, cleaved caspase-3, and CARP-1 proteins. The levels of pro-inflammatory cytokines in the sera were analyzed by sandwich ELISA assays following methods detailed herein (Cheriyan et al. (2016) Oncotarget 7, 73370-73388; and Cheriyan et al. (2017) Oncotarget 8, 104928-104945).

[1] = test system: CARP-1 levels, cleavage of PARP or caspase-3; test: Western blot for apoptosis markers; assay type: cell-based
Text: (§1) The cells were lysed to prepare protein extracts.

[2] = target: T1, NEMO interaction with CARP-1 (Homo sapiens, UniProt Q8IX12); test: IP-WB in Gst-NEMO expressing HBC cells, CARP-1; assay type: cell-based; details: alone or in combination with Adriamycin
T1 construct: expressed in transfected cells; host or cells: HBC cells stably expressing Gst-NEMO
Procedure: (§2) The biochemical mechanism of inhibition of CARP-1 (551-580; SEQ ID NO: 6) binding with NEMO (221-261; SEQ ID NO: 2) by SNI-1 was assessed. E. coli expressed Gst-NEMO (221-261; SEQ ID NO: 2) and His-TAT-HA-CARP-1 (551-580; SEQ ID NO: 6) peptides in IP-WB assays were used. […] Since Adriamycin activates ATM to regulate canonical NF-κB and DSB repair pathways, it remains to be clarified whether CARP-1 regulates RIPK1 signaling dependent and/or independent of ATM.
as §1

MDA-MB-468 TNBC cells = test: MTT cell viability, SNI-1 analogs; assay type: cell-based, human; details: 24 h
Procedure: FIGS. 22A-B show SNI-1 analogs enhance Adriamycin inhibition of TNBC cell growth. FIGS. 22A-B show cells treated with indicated dose of noted agent for 24 h, and their viabilities determined by MTT assay. Columns represent means of three independent experiments; bars, SE.
MDA-MB-468 TNBC cells were next treated with each of the analog in vitro as a single agent or in combination with Adriamycin in vitro.

[3] = test system: diffuse large B cell lymphoma cells; test: Cell viability, lymphoma; assay type: cell-based; details: Homo sapiens, read-out: IC50, reduced viabilities
HeLa NEMO ko cells = test: MTT cell viability; assay type: cell-based, human
[4] = test system: SUM149 cell-derived xenografts; test: SUM149 BRCA1-mutant TNBC xenografts in NCr-SCID mice; assay type: in vivo; details: 70 mg/kg daily×13, i.p. (parent) or i.v. (sodium salt)
Text: BRCA1 mutant TNBC Tumor Model: Testing for germline BRCA1/2 mutations permits identification of BRCA1/2 status as clinically relevant in the selection of therapy for patients already diagnosed with breast cancer. BRCA status predicts responsiveness to platinum-based chemotherapy, as well as to inhibitors of poly(ADP-ribose) polymerase (PARP) in breast and ovarian cancers. […] A related objective of this pilot study was to determine whether and to the extent SNI-1 or its water soluble, di-sodium derivative will elicit effects in vivo.

MTT cell viability [5] = assay type: cell-based; details: human, wild-type HeLa cells; read-out: reduction in the viabilities
MDA-MB-231 TNBC cells = test: MTT cell viability; assay type: cell-based, human; details: Homo sapiens, MDA-MB-231, 72 h
Procedure: (§3) The murine TNBC cell line 4T1 that was derived from a spontaneously arising BALB/c mammary tumor were obtained from the Karmanos Cancer Institute (KCl), and were maintained in culture (Cheriyan et al. (2016) Oncotarget 7, 73370-73388). […] The cell culture media were also supplemented with 10% FBS, 100 units/ml of penicillin, and 100 μg/ml of streptomycin, and the cells were maintained at 37° C. and 5% CO2. For cell growth and MTT studies, the cells were cultured in fresh media with 5%-10% FBS prior to their treatments with various agents.
(§4) Cell Viability, Immunoprecipitation and Western Blot assays: 500-1000 cells were seeded in each well of 96 well plate and then either untreated (control) or treated with various agents for noted times. After treatment, MTT reagent was added at 0.5 mg/ml concentration for 2-4 hours at 37° C. DMSO was added to solubilize formazan and the plate was read at 570 nm in a plate reader. The histograms indicating levels of cell viability were generated by plotting the net absorbances (Rishi et al. (2003) J Biol Chem 278, 33422-33435; and Rishi et al. (2006) J Biol Chem 281, 13188-13198).

MTT cell viability [6] = assay type: cell-based, human; details: human, MDA-MB-231 TNBC cells; 1.0, 2.5, 5.0, or 10.0 μM over 24 h; read-out: loss of viability
Procedure: as §3, §4

[7] = test system: mammospheres derived from human TNBC PDX tumors; test: Three-dimensional mammosphere assay (MTT); assay type: cell-based; details: SNI-1 2.5 or 5.0 μM, Adriamycin 5 μM, 48 h
Procedure: Three-dimensional Mammosphere Assays: The PDX tumor cells were dissociated from the tumor fragments, and cultured for 2-dimensional and mammosphere studies in vitro (Cheriyan et al. (2016) Oncotarget 7, 73370-73388). Briefly, the cells were washed twice in 1×PBS, trypsinized, and pelleted at 200×g at room temperature. Cells were then re-suspended in 5 ml of mammosphere media (DMEM/F12 containing 2 mM L-glutamine, 100 U/ml penicillin, 100 U/ml streptomycin, 1×B27 supplement, 20 ng/ml recombinant human epidermal growth factor (EGF; Sigma), 10 ng/ml recombinant human basic fibroblast growth factor (bFGF; R&D Systems). Approximately 5000 viable cells per ml was then seeded in an ultra-low adherent 60 mm plate and incubated at 37° C. and 5% CO2 for two weeks without disturbing the plates. After the mammospheres formed, fresh media with or without Adriamycin (5 μM), SNI-1 (2.5 or 5.0 μM), or a combination of these agents was added and the cells incubated for additional 48 h at 37° C. and 5% CO2. The mammospheres in the untreated and treated plates were photographed, and the cells were then dissociated to determine their viabilities by the MTT assay (Cheriyan et al. (2016) Oncotarget 7, 73370-73388).

murine TNBC cells = test: Cytokine ELISA of culture media; assay type: cell-based; details: single agent
[8] = test system: RENCA renal cancer tumors; details: mouse, in vivo
Procedure: The subcutaneous tumor bearing mice were treated with indicated agents. […] The end-points for assessing anti-tumor activity involved qualitative determination via tumor growth inhibition (% T/C) where T is the median tumor volume of the treated mice and C is the median tumor volume of the Control mice on any given day of measurement.

[9] = target: T2, His-TAT-HA-CARP-1 (551-580) binding with Gst-NEMO (221-261) (Homo sapiens, UniProt Q8IX12); test: Pull-down and Western blot with E. coli expressed peptides; details: then washed
T2 construct: His-TAT-HA-CARP-1 (551-580); made in house; host or cells: E. coli BL21
Procedure: as §2, §1

T2 sequence (Q8IX12 551-580 limits assumed): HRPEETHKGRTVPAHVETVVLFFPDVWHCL
T1 sequence (Q8IX12 whole entry): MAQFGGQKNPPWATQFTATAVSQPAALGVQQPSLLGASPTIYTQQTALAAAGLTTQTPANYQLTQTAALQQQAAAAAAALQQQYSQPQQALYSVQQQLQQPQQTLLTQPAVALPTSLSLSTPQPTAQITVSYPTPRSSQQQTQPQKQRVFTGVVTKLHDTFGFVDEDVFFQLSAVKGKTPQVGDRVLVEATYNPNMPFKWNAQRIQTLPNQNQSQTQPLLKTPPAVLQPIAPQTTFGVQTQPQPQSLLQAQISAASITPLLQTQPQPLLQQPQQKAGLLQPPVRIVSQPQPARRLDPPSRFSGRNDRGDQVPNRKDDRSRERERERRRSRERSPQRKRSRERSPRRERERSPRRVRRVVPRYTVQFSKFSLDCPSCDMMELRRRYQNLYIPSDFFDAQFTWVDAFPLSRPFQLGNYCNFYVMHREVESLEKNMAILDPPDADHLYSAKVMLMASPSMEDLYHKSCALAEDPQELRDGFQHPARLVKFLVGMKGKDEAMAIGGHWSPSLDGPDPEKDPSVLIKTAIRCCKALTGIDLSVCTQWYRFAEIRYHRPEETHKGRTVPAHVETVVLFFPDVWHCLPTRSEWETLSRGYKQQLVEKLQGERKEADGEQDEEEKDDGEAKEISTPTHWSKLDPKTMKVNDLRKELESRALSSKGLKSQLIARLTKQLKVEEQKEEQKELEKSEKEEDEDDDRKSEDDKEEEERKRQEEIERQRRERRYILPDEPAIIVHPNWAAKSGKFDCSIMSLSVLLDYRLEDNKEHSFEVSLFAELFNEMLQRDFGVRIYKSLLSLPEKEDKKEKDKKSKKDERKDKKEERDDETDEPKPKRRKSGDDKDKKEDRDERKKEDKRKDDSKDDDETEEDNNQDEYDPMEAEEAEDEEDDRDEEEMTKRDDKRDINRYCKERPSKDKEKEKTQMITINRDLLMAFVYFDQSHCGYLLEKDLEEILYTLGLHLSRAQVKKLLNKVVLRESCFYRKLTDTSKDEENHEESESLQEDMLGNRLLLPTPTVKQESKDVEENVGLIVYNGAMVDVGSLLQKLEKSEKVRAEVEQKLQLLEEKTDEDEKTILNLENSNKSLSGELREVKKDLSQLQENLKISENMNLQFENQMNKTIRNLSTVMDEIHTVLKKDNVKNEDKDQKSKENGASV

Compound: Cc1ccc(-n2nnnc2SCC(=O)c2ccc(O)c(O)c2)cc1 [SNI-1, 1-(3,4-dihydroxyphenyl)-2-{(1-(4-methylphenyl)-1H-tetrazol-5-yl)thio}ethanone]
- inhibition of tumor growth (4T1 TNBC tumors; 70 mg/kg/dose i.p. QD 1-13): absent to minimal inhibition of tumor growth
- toxicities in the animals (4T1 TNBC tumors; 70 mg/kg/dose i.p. QD 1-13): did not provoke toxicities
- activated caspase-3 in normal tissues (immuno-histochemistry) (4T1 TNBC tumors; mouse, in vivo): failed to show presence of activated caspase-3
- hematoxylin and eosin staining of lungs, spleen, heart, liver, kidneys, and bone marrow (4T1 TNBC tumors; mouse, in vivo): did not indicate microscopic alterations
- cleaved caspase-3 in tumors (immuno-histochemistry) (4T1 TNBC tumors; versus untreated control animal): strong presence of cleaved caspase-3
- apoptosis (elevated CARP-1 levels, cleavage of PARP or caspase-3) [1]: stimulation of apoptosis
- NEMO interaction with CARP-1 (IP-WB) [2]: abrogated NEMO interaction with CARP-1
- loss of cell viability in combination with Adriamycin versus Adriamycin alone (MDA-MB-468 TNBC cells): greater loss of cell viability
- IC50 [3]: ~10 µM
- loss of viabilities versus similarly treated wild-type HeLa cells (HeLa NEMO ko cells): further significant loss of viabilities
- tolerability [4]: well tolerated
- cytotoxicity (MTT cell viability [5]): ~30%
- IC50 (MDA-MB-231 TNBC cells): 4 to 4.5 µM
- cytotoxicity at 24 h (MTT cell viability [6]): 10 to 20%
- growth/viability of mammospheres [7]: failed to inhibit growth of mammospheres
- secretion of TNFα and IL-1β (murine TNBC cells): failed to cause increase
- weight loss in animals [8]: 0.4-4.0%
- binding of Gst-NEMO (221-261) with His-TAT-HA-CARP-1 (551-580) peptide ([9]; compound incubated with CARP-1 peptide immobilized on Ni-NTA beads): abrogated binding
- binding of His-TAT-HA-CARP-1 (551-580) with Gst-NEMO (221-261) peptide ([9]; compound incubated with Gst-NEMO peptide immobilized on Gst sepharose beads): failed to abrogate binding

Reference: patent US20210106567A1, “COMPOSITIONS AND METHODS FOR INHIBITING CARP-1 BINDING TO NEMO” (United States Government As Represented By The Department …, priority 2019, published 2021)
